Results published in patent publication US6875761B2 (Eisai Co., Ltd., priority 1997, dated 2005).
Structures can show the parent of a compound that is named as a salt.

Legend:
serotonin 1A receptor = molecular target: T1, serotonin 1A receptor (Rattus norvegicus, UniProt P19327); test: Binding test on [3H] 8-hydroxy-dipropylaminotetralin, hippocampus receptor fraction; design: species or system SD rats; conditions: rat hippocampus receptor fraction, 0.5 nM [3H] 8-OH-DPAT, room temperature 30 min; read-out: 5HT1
T1 construct: To the receptor fraction of the hippocampus were added a test compound and 0.5 nM of [^3H]; 8-hydroxy-dipropylaminotetralin; from tissue; host or cells: rat hippocampus membrane fraction
T1 sequence (P19327 1-422): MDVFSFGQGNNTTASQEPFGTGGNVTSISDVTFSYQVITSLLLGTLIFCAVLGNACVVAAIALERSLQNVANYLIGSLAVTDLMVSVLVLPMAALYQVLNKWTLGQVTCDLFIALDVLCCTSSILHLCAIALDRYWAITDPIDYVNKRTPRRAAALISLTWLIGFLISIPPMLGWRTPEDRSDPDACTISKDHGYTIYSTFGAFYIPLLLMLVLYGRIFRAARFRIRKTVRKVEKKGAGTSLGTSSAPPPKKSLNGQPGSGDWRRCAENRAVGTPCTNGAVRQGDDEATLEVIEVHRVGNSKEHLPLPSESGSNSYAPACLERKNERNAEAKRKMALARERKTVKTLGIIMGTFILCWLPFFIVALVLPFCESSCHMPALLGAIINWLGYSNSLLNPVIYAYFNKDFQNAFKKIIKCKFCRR

serotonin 2 receptor = molecular target: T2, serotonin 2 receptor (Rattus norvegicus, UniProt P14842); test: Binding test on [3H] ketanserin, cerebral cortex receptor fraction; design: species or system SD rats; conditions: 0.3 nM [3H] ketanserin, 37° C. 15 min, read-out: 5HT2
T2 construct: To the receptor fraction of the cerebral cortex were added a test compound and 0.3 nM of [^3H] ketanserin; from tissue; host or cells: rat cerebral cortex membrane fraction
T2 sequence (P14842 whole entry): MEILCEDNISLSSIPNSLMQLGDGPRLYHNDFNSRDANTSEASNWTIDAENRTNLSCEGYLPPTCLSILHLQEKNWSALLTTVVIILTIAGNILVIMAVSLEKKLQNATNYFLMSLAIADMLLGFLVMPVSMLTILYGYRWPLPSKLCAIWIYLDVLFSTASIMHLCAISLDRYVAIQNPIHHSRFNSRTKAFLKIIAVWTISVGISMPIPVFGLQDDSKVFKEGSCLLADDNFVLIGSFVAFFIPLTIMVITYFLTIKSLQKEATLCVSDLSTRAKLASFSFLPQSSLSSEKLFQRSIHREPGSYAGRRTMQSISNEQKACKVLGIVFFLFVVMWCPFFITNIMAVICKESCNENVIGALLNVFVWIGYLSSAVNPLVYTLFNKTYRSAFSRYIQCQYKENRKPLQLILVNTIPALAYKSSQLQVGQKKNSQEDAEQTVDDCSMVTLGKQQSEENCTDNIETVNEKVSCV

Ki (serotonin 1A receptor) [nM]	Ki (serotonin 2 receptor) [nM]	SMILES
91	0.01	CCN1CCN(c2nc(-c3ccc(OCC(C)(C)O)cc3)cc3ccccc23)CC1 [Example 309, 1-(1-ethylpiperazin-4-yl)-3-[4-(2-hydroxy-2-methylpropoxy)phenyl]isoquinoline dihydrochloride]
31.6	73.6	CCN1CCN(c2nc(-c3cccc(OCCO)c3)cc3ccccc23)CC1 [Example 329, 1-(4-Ethylpiperazin-1-yl)-3-[3-(2-hydroxyethoxy)phenyl]isoquinoline dihydrochloride]
13.9	12.1	CCN1CCN(c2nc(-c3ccc4c(c3)OCCO4)cc3ccccc23)CC1 [Example 332, 1-(4-ethylpiperazin-1-yl)-3-(3,4-ethylenedioxyphenyl)isoquinoline dihydrochloride]
60.1	20.3	CCN1CCN(c2nc(-c3cc(OC)ccn3)cc3ccccc23)CC1 [Example 335, 1-(4-ethylpiperazin-1-yl)-3-(4-methoxypyridin-2-yl)isoquinoline dihydrochloride]
25.7	5.6	CCN1CCN(c2nc(-c3ccc(OCC(O)CO)cc3)cc3ccccc23)CC1 (centres unmarked) [Example 337, 1-(4-ethylpiperazin-1-yl)-3-[4-(2,3-dihydroxypropoxy)phenyl]isoquinoline dihydrochloride]
14.1	61.9	CCN1CCN(c2nc(-c3ccc(OCC(N)=O)cc3)cc3ccccc23)CC1 [Example 338, 1-(4-ethylpiperazin-1-yl)-3-(4-carbamoylmethoxyphenyl)isoquinoline dihydrochloride]
214	18.9	CCN1CCN(c2nc(-c3ccc(OC(F)(F)F)cc3)cc3ccccc23)CC1 [Example 339, 1-(4-ethylpiperazin-1-yl)-3-(4-trifluoromethoxyphenyl)isoquinoline dihydrochloride]
26	20.7	CCN1CCN(c2nc(-c3ccc(OCCO)c(OC)c3)cc3ccccc23)CC1 [Example 340, 1-(4-ethylpiperazin-1-yl)-3-[4-(2-hydroxyethoxy)-3-methoxyphenyl]isoquinoline dihydrochloride]
6.2	14.9	CCN1CCN(c2nc(-c3ccc(S(C)(=O)=O)cc3)cc3ccccc23)CC1 [Example 342, 1-(4-ethylpiperazin-1-yl)-3-(4-methylsulfonylphenyl)isoquinoline dihydrochloride]
35.7	5.7	CCN1CCN(c2nc(-c3ccc(OCC(O)COC)cc3)cc3ccccc23)CC1 (centres unmarked) [Example 343, 1-(4-ethylpiperazin-1-yl)-3-[4-(2-hydroxy-3-methoxypropoxy)phenyl]isoquinoline dihydrochloride]
31.8	41.7	CCN1CCN(c2nc(-c3ccc(C(=O)NCCO)cc3)cc3ccccc23)CC1 [Example 346, 1-(4-ethylpiperazin-1-yl)-3-{4-(N-(2-hydroxyethyl)carbamoyl]phenyl}isoquinoline dihydrochloride]
8	24.2	CCN1CCN(c2nc(-c3ccc(S(=O)(=O)NCCO)cc3)cc3ccccc23)CC1 [Example 347, 1-(4-ethylpiperazin-1-yl)-3-{4-[N-(2-hydroxyethyl)sulfamoyl]phenyl}isoquinoline dihydrochloride]
11	1.6	CCN1CCN(c2nc(-c3ccc(C(C)O)cc3)cc3ccccc23)CC1 (centres unmarked) [Example 348, 1-(4-ethylpiperazin-1-yl)-3-[4-(1-hydroxyethyl)phenyl]isoquinoline dihydrochloride]
15.7	6.4	CCN1CCN(c2nc(-c3ccc(CCO)cc3)cc3ccccc23)CC1 [Example 351, 1-(4-ethylpiperazin-1-yl)-3-[4-(2-hydroxyethyl)phenyl]isoquinoline dihydrochloride]
4	54.6	CCN1CCN(c2nc(-c3ccc(S(=O)(=O)CCCO)cc3)cc3ccccc23)CC1 [Example 352, 1-(4-ethylpiperazin-1-yl)-3-[4-(3-hydroxypropyl)sulfonylphenyl]isoquinoline dihydrochloride]

Continued, molecule first:

SMILES	Ki (serotonin 1A receptor) [nM]	Ki (serotonin 2 receptor) [nM]
CN1CCN(c2nc(-c3ccc(OCC(C)(C)O)cc3)cc3sccc23)CC1 [Example 288, 6-[4-(2-methyl-2-hydroxypropoxy)phenyl]-4-(4-methylpiperazin-1-yl)thieno[3,2-c]pyridine hydrochloride]	80.9	0.14
CCN1CCN(c2nc(-c3ccc(OCC(C)(C)O)cc3)cc3sccc23)CC1 [Example 290, 6-[4-(2-methyl-2-hydroxypropoxy)phenyl]-4-(4-ethylpiperazin-1-yl)thieno[3,2-c]pyridine dihydrochloride]	54.7	1.35
CCN1CCN(c2nc(-c3ccc(CCC(C)(C)O)cc3)cc3sccc23)CC1 [Example 291, 4-[4-ethylpiperazin-1-yl)-6-[4-(3-hydroxy-3-methylbutyl)phenyl]thieno[3,2-c]pyridine dihydrochloride]	43.3	1.44
CCN1CCN(c2nc(-c3ccc(OCCCC(C)(C)O)cc3)cc3sccc23)CC1 [Example 292, 6-[4-(4-methyl-4-hydroxypentyloxy)phenyl]-4-(4-ethylpiperazin-1-yl)thieno[3,2-c]pyridine]	68.6	22.4
CCN1CCN(c2nc(-c3cccc(OCCO)c3)cc3ccoc23)CC1 [Example 298, 7-(1-ethylpiperazin-4-yl)-5-[3-(2-hydroxyethoxy)phenyl]furo[2,3-c]pyridine dihydrochloride]	1.72	5.37
CCN1CCN(c2nc(-c3ccc(CCCO)cc3)cc3ccoc23)CC1 [Example 299, 7-(1-ethylpiperazin-4-yl)-5-[4-(3-hydroxypropyl)phenyl]furo[2,3-c]pyridine dihydrochloride]	0.37	30.1
CCN1CCN(c2nc(-c3ccc(OCCO)cc3)cc3ccoc23)CC1 [Example 301, 7-(1-Ethylpiperazin-4-yl)-5-[4-(2-hydroxyethoxy)phenyl]furo[2,3-c]pyridine oxalate]	9.15	12.7
CCN1CCN(c2nc(-c3ccc(O[C@H](C)CO)cc3)cc3ccoc23)CC1 [Example 302, 7-(1-ethylpiperazin-4-yl)-5-{4-[(R)-2-hydroxy-1-methylethoxy]phenyl}furo[2,3-c]pyridine dihydrochloride]	0.53	30
CCN1CCN(c2nc(-c3ccc(O[C@@H](C)CO)cc3)cc3ccoc23)CC1 [Example 303, 7-(1-ethylpiperazin-4-yl)-5-{4-[(S)-2-hydroxy-1-methylethoxy]phenyl}furo[2,3-c]pyridine dihydrochloride]	0.53	44.4
CCN1CCN(c2nc(/C=C/c3ccc(OCCO)cc3)cc3ccoc23)CC1 [Example 307]	7.7	11.5
CCN1CCN(c2nc(/C=C/c3ccccc3OCCO)cc3ccoc23)CC1 [Example 308, oxalate]	6.49	19.5
CCN1CCN(c2nc(C#CC(O)c3ccccc3)cc3ccccc23)CC1 (centres unmarked) [Example 310, 1-(1-ethylpiperazin-4-yl)-3-(3-phenyl-3-hydroxy-1-propynyl)isoquinoline hydrochloride]	4.4	10.2
CCN1CCN(c2nc(-c3ccc(OCCCO)cc3)cc3ccoc23)CC1 [Example 317, 7-(1-ethylpiperazin-4-yl)-5-[4-(3-hydroxypropoxy)phenyl]furo[2,3-c]pyridine dihydrochloride]	12.2	105
CCN1CCN(c2nc(-c3ccc(CCCOC)cc3)cc3ccccc23)CC1 [Example 333, 1-(4-ethylpiperazin-1-yl)-3-[4-(3-(methoxypropyl)phenyl]isoquinolinedihydrochloride]	17.1	6.1
CCN1CCN(c2nc(-c3ccc(OCC4OCCO4)cc3)cc3ccccc23)CC1 [Example 336, 1-(4-ethylpiperazin-1-yl)-3-[4-(1,3-dioxolan-2-ylmethyloxy)phenyl]isoquinoline]	45.7	2.6
CCN1CCN(c2nc(-c3ccc(OC)nc3)cc3ccccc23)CC1 [Example 344, 1-(4-ethylpiperazin-1-yl)-3-(2-methoxypyridin-5-yl)isoquinoline]	10.7	35.9
CCN1CCN(c2nc(-c3ccc(C(C)(C)O)cc3)cc3ccccc23)CC1 [Example 345, 1-(4-ethylpiperazin-1-yl)-[4-(1-hydroxy-1-methylethyl)phenyl]isoquinoline]	11.3	1.4
CCCS(=O)(=O)c1ccc(-c2cc3ccccc3c(N3CCN(CC)CC3)n2)cc1 [Example 349, 1-(4-ethylpiperazin-1-yl)-3-[4-propylsulfonyl)phenyl]isoquinoline dihydrochloride]	3.2	5
CCN1CCN(c2nc(-c3ccc(S(=O)(=O)CCCOC)cc3)cc3ccccc23)CC1 [Example 350, 1-(4-ethylpiperazin-1-yl)-3-{4-[(3-methoxypropyl)sulfonyl]phenyl}isoquinoline]	2.6	16.7
